The text below walks through data of publication PMC12082625, “Redox-State-Dependent Structural Changes within a Prokaryotic 6–4 Photolyase” (Journal of the American Chemical Society, 2025).

Molecules are shown by their SMILES.

Type in all cases: binding
The target in assay [1] is T1, Cc(6–4)PL (Caulobacter vibrioides, UniProt Q9AAF5, K48A).
T1 construct: gene CC_0646; pET28-based, nickel-NTA purified (His-tagged by implication) from E. coli BL21(DE3); model spans M1-S508; contains FAD, DLZ and [4Fe-4S] cluster
Briefly: X-ray crystal structure (synchrotron, […] Å); UV/vis spectroscopy. To be noted: antenna site; occupancy in crystal, not an affinity.

Assay [2] deals with T2, Cc(6–4)PL (Caulobacter vibrioides, UniProt Q9AAF5).
T2 construct: gene CC_0646; pET28-based, nickel-NTA purified (His-tagged by implication) from E. coli BL21(DE3); model spans M1-S508; contains FAD, DLZ and [4Fe-4S] cluster
T2 sequence (Q9AAF5 1-509): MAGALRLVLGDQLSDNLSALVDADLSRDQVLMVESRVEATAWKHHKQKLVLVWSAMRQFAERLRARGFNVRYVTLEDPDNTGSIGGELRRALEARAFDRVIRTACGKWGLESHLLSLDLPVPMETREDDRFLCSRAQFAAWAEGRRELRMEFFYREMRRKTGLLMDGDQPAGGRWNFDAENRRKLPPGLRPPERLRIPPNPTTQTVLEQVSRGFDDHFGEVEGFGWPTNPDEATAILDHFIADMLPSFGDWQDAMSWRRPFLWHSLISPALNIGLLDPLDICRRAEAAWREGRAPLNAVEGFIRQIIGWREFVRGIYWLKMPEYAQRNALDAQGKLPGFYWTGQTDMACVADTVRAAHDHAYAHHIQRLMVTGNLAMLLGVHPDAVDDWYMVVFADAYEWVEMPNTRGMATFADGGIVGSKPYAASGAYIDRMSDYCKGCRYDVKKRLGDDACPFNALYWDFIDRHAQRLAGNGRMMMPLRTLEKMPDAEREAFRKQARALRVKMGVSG
Nature of the assay: XFEL serial femtosecond crystallography. Conditions: dark-adapted oxidized state, room temperature; N-terminal antenna site; co-purified cofactor.

Assay [3] addresses T2, Cc(6–4)PL. Nature of the assay: XFEL serial femtosecond crystallography; in crystallo UV-vis. Conditions: photoreduced in crystals, 50 mM DTT, anaerobic, 30 min white light and blue LED; catalytic FAD site.
Assay [4] addresses T2, Cc(6–4)PL. Nature of the assay: XFEL serial femtosecond crystallography and synchrotron crystal structures. To be noted: dark-adapted oxidized state, room temperature; catalytic FAD site; co-purified cofactor.

T1 sequence (Q9AAF5 entry or part of it K48A): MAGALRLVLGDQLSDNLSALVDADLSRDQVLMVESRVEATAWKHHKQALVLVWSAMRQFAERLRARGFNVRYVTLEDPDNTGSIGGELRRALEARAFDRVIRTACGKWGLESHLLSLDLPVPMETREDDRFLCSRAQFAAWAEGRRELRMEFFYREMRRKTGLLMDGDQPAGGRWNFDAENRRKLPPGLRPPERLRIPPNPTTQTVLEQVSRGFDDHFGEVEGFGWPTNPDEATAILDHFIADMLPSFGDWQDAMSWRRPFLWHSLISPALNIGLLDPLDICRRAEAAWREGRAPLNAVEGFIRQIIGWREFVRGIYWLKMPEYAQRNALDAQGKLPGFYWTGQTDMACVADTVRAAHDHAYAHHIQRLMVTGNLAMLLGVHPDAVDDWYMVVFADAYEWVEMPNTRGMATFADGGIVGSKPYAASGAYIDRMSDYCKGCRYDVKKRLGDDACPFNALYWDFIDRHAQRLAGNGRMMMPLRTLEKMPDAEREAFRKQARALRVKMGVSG

Turning to `Cc1nc2c(=O)[nH]c(=O)nc-2n(C[C@H](O)[C@H](O)[C@H](O)CO)c1C` [DLZ], the occupancy in assay [1] is listed as ~ 50%. In assay [2], the “XFEL serial femtosecond crystallography” value is reported as “Structural analysis reveals an intricate DLZ binding pocket with interactions involving several key residues”.

For `Cc1cc2c(cc1C)N(C[C@H](O)[C@H](O)[C@H](O)COP(=O)(O)OP(=O)(O)OC[C@H]1O[C@@H](n3cnc4c(N)ncnc43)[C@H](O)[C@@H]1O)c1[nH]c(=O)[nH]c(=O)c1N2` [FADH–], the “XFEL serial femtosecond crystallography; in crystallo UV-vis” value in assay [3] was “structural changes occurred in the FAD binding site compared to the FADox state”.

As for `Cc1cc2nc3c(=O)[nH]c(=O)nc-3n(C[C@H](O)[C@H](O)[C@H](O)COP(=O)(O)OP(=O)(O)OC[C@H]3O[C@@H](n4cnc5c(N)ncnc54)[C@H](O)[C@@H]3O)c2cc1C` [FADox], the “XFEL serial femtosecond crystallography and synchrotron crystal structures” value in assay [4] was “the damage-free structures reveal FAD’s binding arrangement with its isoalloxazine moiety engaging key amino acid residues”.
